Results reported in ChEMBL document CHEMBL5727462, “Benzimidazole derivates useful as inhibitors of mammalian histone deacetylase activity” (2019).

Biological target: T1, Protein deacetylase HDAC6 (Homo sapiens, UniProt Q9UBN7)
T1 sequence (Q9UBN7 whole entry): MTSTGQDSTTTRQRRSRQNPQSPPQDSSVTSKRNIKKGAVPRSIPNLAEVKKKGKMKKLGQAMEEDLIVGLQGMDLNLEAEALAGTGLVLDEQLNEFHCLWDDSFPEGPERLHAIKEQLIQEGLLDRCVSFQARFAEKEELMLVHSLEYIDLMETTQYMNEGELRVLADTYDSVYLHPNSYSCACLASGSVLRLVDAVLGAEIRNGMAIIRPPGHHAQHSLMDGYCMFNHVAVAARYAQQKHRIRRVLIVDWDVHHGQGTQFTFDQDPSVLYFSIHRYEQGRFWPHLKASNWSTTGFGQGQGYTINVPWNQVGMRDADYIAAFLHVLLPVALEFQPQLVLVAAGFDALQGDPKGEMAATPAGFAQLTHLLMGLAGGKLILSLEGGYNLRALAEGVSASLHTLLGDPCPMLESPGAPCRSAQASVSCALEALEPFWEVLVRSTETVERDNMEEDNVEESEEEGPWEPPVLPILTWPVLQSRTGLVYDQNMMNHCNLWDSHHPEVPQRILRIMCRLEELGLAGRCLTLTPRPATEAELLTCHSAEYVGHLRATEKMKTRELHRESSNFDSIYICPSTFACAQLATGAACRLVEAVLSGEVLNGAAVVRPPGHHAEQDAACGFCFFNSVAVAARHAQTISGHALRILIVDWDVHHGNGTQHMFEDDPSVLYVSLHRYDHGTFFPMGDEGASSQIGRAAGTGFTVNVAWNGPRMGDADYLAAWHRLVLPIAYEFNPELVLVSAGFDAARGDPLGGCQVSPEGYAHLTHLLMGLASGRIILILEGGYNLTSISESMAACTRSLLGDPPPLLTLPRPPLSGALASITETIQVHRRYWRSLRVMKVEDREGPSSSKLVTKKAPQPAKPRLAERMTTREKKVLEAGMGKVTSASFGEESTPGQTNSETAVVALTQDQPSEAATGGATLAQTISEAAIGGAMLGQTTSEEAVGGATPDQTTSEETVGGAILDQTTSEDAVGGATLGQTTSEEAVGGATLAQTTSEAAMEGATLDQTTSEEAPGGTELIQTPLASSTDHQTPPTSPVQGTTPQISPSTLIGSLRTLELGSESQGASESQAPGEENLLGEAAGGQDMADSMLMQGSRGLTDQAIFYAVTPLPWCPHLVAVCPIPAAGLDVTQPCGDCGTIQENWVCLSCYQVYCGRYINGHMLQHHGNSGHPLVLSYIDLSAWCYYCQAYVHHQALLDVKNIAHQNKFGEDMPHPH
Experiment: In vitro enzymatic HDACs assays: All Examples were tested in HDAC1, 2, 3, 6 and 8 in vitro enzymatic assays. The assay principle is well known (Hauser et al. 2009, Bradner et al. 2010) and all necessary reagents like enzymes, substrates, developer and reference compounds are commercially available (see e.g. BPS Biosciences http://www.bpsbioscience.com/). A series of dilutions of the compounds were prepared with a top concentration of 200 μM (2 μM for HDAC6). The enzymatic reactions were conducted in a mixture containing assay buffer, bovine serum albumin, HDAC substrate, and a test compound. After enzymatic reaction, developer was added and after an additional incubation time, fluorescence intensity was measured at an excitation wavelength of 360 nm and an emission wavelength of 460 nm. A selection of the Examples were tested in a full HDAC panel containing HDAC1, 2, 3, 4, 5, 6, 7, 8, 9, 10 and 11 in vitro enzymatic assays. The tests were performed as above except that a series of dilutions of the compounds were prepared with a top concentration of 10 μM for all HDACs.

For `O=C(NO)c1ccc2nc(-c3ccc(-c4ccccc4)c(F)c3)[nH]c2c1`, the IC50 was 19 nM.
